4 compounds from patent US20120329787A1, “FUNGICIDAL PYRANONES AND OXAZINONES” (E.I. DU PONT DE NEMOURS AND COMPANY, priority 2011, published 2012) can be followed below.

Common to all, as to type: in vivo
One test relates to Botrytis cinerea. The test can be described thus: Test A: tomato Botrytis, spray on tomato seedlings the day before inoculation. The note with it: 200 ppm test suspension. The procedure, abridged:
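Visual disease rating after Botrytis cinerea spore inoculation one day post-treatment, incubation 48 h at 20 °C in saturated atmosphere then 3 days at 24 °C. Preventive foliar spray to run-off on tomato seedlings at 200 ppm (500 g/ha equivalent) or 40 ppm, acetone/water with surfactant.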

In the next test the test system is Alternaria solani. Kind of test: Test B: tomato early blight, spray on tomato seedlings the day before inoculation. The note with it: 200 ppm test suspension. A digest of the protocol:
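Visual blight ratings were made after 48 h saturated incubation at 27 °C plus 5 days at 20 °C, following A. solani spore inoculation one day after run-off spraying at 200 ppm (or 40 ppm where marked).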

A further test relates to Phytophthora infestans. The note with it: 200 ppm test suspension; tomato seedlings.
Another test has as its system Rhizoctonia solani. The test can be described thus: Test D: turf brown patch, spray on creeping bent grass seedlings the day before inoculation. The settings on record: 200 ppm test suspension. The text has this: General protocol for preparing test suspensions for Tests A-I: the test compounds were first dissolved in acetone in an amount equal to 3% of the final volume and then suspended at the desired concentration (in ppm) in acetone and purified water (50/50 mix by volume) containing 250 ppm of the surfactant Trem® 014 (polyhydric alcohol esters). The resulting test suspensions were then used in Tests A-I. Spraying a 200 ppm test suspension to the point of run-off on the test plants was the equivalent of a rate of 500 g/ha. […] (An asterisk “*” next to the rating value indicates a 40 ppm test suspension was used.) The test suspension was sprayed to the point of run-off on creeping bent grass (Agrostis sp.) seedlings. The following day, the seedlings were inoculated with a bran and mycelial slurry of Rhizoctonia solani (the causal agent of turf brown patch) and incubated in a saturated atmosphere at 27° C. for 48 h, and then moved to a growth chamber at 27° C. for 3 days, after which time disease ratings were made. […] A dash (-) indicates no test results. All results are for 200 ppm except where followed by an asterisk “*”, which indicates a 40 ppm.

The test system of the next test is Septoria nodorum. Kind of test: Test E: Septoria glume blotch, spray on wheat seedlings the day before inoculation. The note with it: 200 ppm test suspension. The procedure, abridged: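 Wheat seedlings received a run-off spray of test suspension, then were inoculated with Septoria nodorum one day later. Suspensions: 200 ppm (≈500 g/ha) or, where asterisked, 40 ppm, in 50/50 acetone/water containing 250 ppm Trem 014.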

A further test has as its system Septoria tritici. Kind of test: Test F: wheat leaf blotch, spray on wheat seedlings the day before inoculation. The settings on record: 200 ppm test suspension. The procedure, abridged: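 Protectant test: Septoria tritici spores inoculated one day after run-off spraying of test suspension (200 ppm, equal to 500 g/ha, or 40 ppm; acetone/water, 250 ppm Trem 014). Plants kept 48 h at 24° C in saturated air and 19 further days at 20° C, then disease scored visually.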

Test [1] concerns Puccinia recondita f. sp. tritici. The test can be described thus: Test H: wheat leaf rust, spray on wheat seedlings the day before inoculation. The settings on record: 200 ppm test suspension, sprayed before inoculation. A digest of the protocol: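 Preventive test: one day after run-off spraying of seedlings at 200 ppm (some at 40 ppm), Puccinia recondita spores were applied. Disease was scored visually after 24 h saturated humidity plus 6 days, both at 20 °C.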

Test [2] deals with Erysiphe graminis f. sp. tritici. The test can be described thus: Test I: wheat powdery mildew, spray on wheat seedlings the day before inoculation. The settings on record: 200 ppm test suspension. A digest of the protocol: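 Protectant test: spore-dust inoculation one day after run-off spraying, then 7 days in a 20° C growth chamber before visual scoring. Suspensions were 200 ppm, or 40 ppm where flagged, in 50/50 acetone-water containing 250 ppm Trem 014.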

`Cc1noc(=O)c(-c2c(F)cc(F)cc2F)c1-c1ccc(Cl)cc1` [Compound 3]: in the test with Botrytis cinerea, the “Test A rating (100 = 100% disease control, 0 = no disease control)” value is on record as 99%. Besides, in the test with Alternaria solani, the “Test B rating (100 = 100% disease control, 0 = no disease control)” value turned out to be 100%. Moreover, the “Test C rating (100 = 100% disease control, 0 = no disease control)” value in the test on Phytophthora infestans is on record as 9%. Also, the “Test D rating (100 = 100% disease control, 0 = no disease control)” value in the test with Rhizoctonia solani is on record as 78%. Also, the “Test E rating (100 = 100% disease control, 0 = no disease control)” value with Septoria nodorum was 0%. For the same compound, the “Test F rating (100 = 100% disease control, 0 = no disease control)” value with Septoria tritici came out at 99%. Also, the “Test H rating (100 = 100% disease control, 0 = no disease control)” value in test [1] is recorded as 98%. In addition, the “Test I rating (100 = 100% disease control, 0 = no disease control)” value in test [2] turned out to be 99%.
Turning to `Cc1noc(=O)c(-c2c(F)cc(F)cc2F)c1-c1ccc(Cl)c(F)c1` [Compound 16], the “Test A rating (100 = 100% disease control, 0 = no disease control)” value in the test on Botrytis cinerea worked out at 0%. In the test on Alternaria solani, the “Test B rating (100 = 100% disease control, 0 = no disease control)” value was determined as 0%. Besides, the “Test C rating (100 = 100% disease control, 0 = no disease control)” value in the test with Phytophthora infestans was 0%. Moreover, in the test with Rhizoctonia solani, the “Test D rating (100 = 100% disease control, 0 = no disease control)” value was found to be 0%. Also, the “Test E rating (100 = 100% disease control, 0 = no disease control)” value with Septoria nodorum was 0%. For the same compound, the “Test F rating (100 = 100% disease control, 0 = no disease control)” value with Septoria tritici was determined as 97%. Moreover, the “Test H rating (100 = 100% disease control, 0 = no disease control)” value in test [1] turned out to be 0%. Also, the “Test I rating (100 = 100% disease control, 0 = no disease control)” value in test [2] is recorded as 0%.
On to `COc1cc(OC)cc(-c2c(-c3ccccc3F)noc(=O)c2-c2ccc(F)cc2F)c1` [Compound 21], for which the “Test A rating (100 = 100% disease control, 0 = no disease control)” value in the test on Botrytis cinerea was 0%. The “Test B rating (100 = 100% disease control, 0 = no disease control)” value in the test with Alternaria solani stood at 0%. The “Test C rating (100 = 100% disease control, 0 = no disease control)” value with Phytophthora infestans turned out to be 0%. In the test on Rhizoctonia solani, the “Test D rating (100 = 100% disease control, 0 = no disease control)” value came to 0%. In the test with Septoria nodorum, the “Test E rating (100 = 100% disease control, 0 = no disease control)” value amounted to 0%. In the test with Septoria tritici, the “Test F rating (100 = 100% disease control, 0 = no disease control)” value was 0%. In addition, in test [1], the “Test H rating (100 = 100% disease control, 0 = no disease control)” value is on record as 0%. Moreover, the “Test I rating (100 = 100% disease control, 0 = no disease control)” value in test [2] is 0%.
As for `COc1cc(OC)cc(-c2c(-c3ccccc3F)noc(=O)c2-c2c(F)cccc2F)c1` [Compound 22], the “Test A rating (100 = 100% disease control, 0 = no disease control)” value in the test on Botrytis cinerea is 0%. For the same compound, in the test on Alternaria solani, the “Test B rating (100 = 100% disease control, 0 = no disease control)” value was 0%. For the same compound, the “Test C rating (100 = 100% disease control, 0 = no disease control)” value with Phytophthora infestans worked out at 0%. Also, the “Test D rating (100 = 100% disease control, 0 = no disease control)” value in the test with Rhizoctonia solani is recorded as 8%. Further, the “Test E rating (100 = 100% disease control, 0 = no disease control)” value with Septoria nodorum turned out to be 0%. Besides, the “Test F rating (100 = 100% disease control, 0 = no disease control)” value in the test with Septoria tritici stood at 0%. Also, in test [1], the “Test H rating (100 = 100% disease control, 0 = no disease control)” value was found to be 0%. For the same compound, the “Test I rating (100 = 100% disease control, 0 = no disease control)” value in test [2] was determined as 0%.
